From patent US20080182893A1, “Anti-Atherogenic Composition” (SAN-EI GEN F.F.I., INC., priority 2005, published 2008)

Test system: ApoE-KO mice
Test: Test Example 2: influence of EMIQ and QC on atherosclerosis, thoracic-abdominal aortic lesion area
Format: in vivo
Conditions: low dose 33 μmol/kg in feed, 14 weeks, versus control group (G1), FIG. 2
Protocol: The EMIQ prepared in Preparation Example 2 and the QC prepared in Preparation Example 3 were orally administered for 14 weeks to ApoE-KO mice in order to elucidate the atherosclerosis progression inhibiting effect of these substances. The atherosclerosis progression inhibiting effect was evaluated based on the atherosclerotic lesion area rate (%) at the thoracic-abdominal aorta of the ApoE-KO mice.
Specifically, before the test the test animals (ApoE-KO mice) were housed for 11 days for environmental acclimation and were then assigned, taking into consideration the body weight and total serum cholesterol (T-cho value), into the following four groups (8 animals in each group) in a completely randomized design using a group assignment system (Statlight #11 Group Assignment, Yukms Co., Ltd., Tokyo): the control group (a group not receiving either substance, G1), a group receiving quercetin admixed in the feed at 33 μmol/kg (low-dose QC group, G2), a group receiving EMIQ admixed in the feed at 33 μmol/kg (low-dose EMIQ group, G3), and a group receiving EMIQ admixed in the feed at 330 μmol/kg (high-dose EMIQ group, G4). […]

## O=c1c(O)c(-c2ccc(O)c(O)c2)oc2cc(O)cc(O)c12 [QC, quercetin]
  thoracic-abdominal aortic atherosclerotic lesion area rate (%): no difference
